Reference: US20100297692A1, “REACTION MEDIUM FOR DETECTING AND/OR IDENTTIFYING STAPHYLOCCOUS AUREUS” (BIOMERIEUX, priority 2007, published 2010)
Each block holds one molecule with its values, some of them ahead of it.

Assays:
S. aureus (MSSA) = test: β-D-ribosidase substrates in Columbia agar, colored or fluorescent colonies; type: cell-based, Staphylococcus aureus
Experimental: (§1) The media hereinafter were prepared in 200 ml of a Columbia agar base (Oxoid), in combination with the chromogenic β-D-ribosidase substrates. The various substrates and also the concentrations and the additives used in the media are described in Table 1 below:
(§2) The β-D-ribosidase substrates are solubilized in DMSO and added to the media so as to obtain the concentrations indicated in Table 1.
(§3) 191 bacterial strains were inoculated onto each of the media using a suspension at 0.5 MacFarland diluted to 1/1000. The dishes were incubated at 37° C. and then read.
(§4) The media were distributed into Petri dishes, then inoculated with approximately 100 000 CFU, then incubated at 37° C. for 48 h. The colonies formed were examined visually after incubation times of 18, 24 and 48 hours.
(§5) The stock collection of 191 strains comprised: […], 48 Staphylococcus spp, 61 Enterococcus spp and 3 alpha-hemolytic Streptococcus.

S. aureus (MRSA) = test: as above; type: cell-based, Staphylococcus aureus
Experimental: as §1, §2, §3, §4, §5

[1] = test system: Coagulase-negative Staphylococci; test: as above; type: cell-based, Staphylococcus spp; conditions: for % of strains producing colored or fluorescent colonies: Coagulase-negative Staphylococci
Experimental: as §1, §2, §3, §4, §5

S aureus (MRSA and MSSA) = test: Catechol-β-D-riboside and X-β-D-riboside on a broad panel of Staphylococcus spp; type: cell-based; conditions: modified Chapman medium without NaCl, 60 mg/l substrate
Experimental: (§6) Catechol-β-D-riboside: A GTS medium (bioMérieux) supplemented with 300 mg/l of catechol-β-D-riboside, then autoclaved, and with 500 mg/l of ammoniacal iron citrate was used and distributed into Petri dishes 55 mm in diameter.
(§7) X-β-D-riboside: A modified Chapman medium, without NaCl, autoclaved and supplemented with 60 mg/l of X-β-D-riboside, was used and distributed into Petri dishes 55 mm in diameter.
For the two media, the inoculation was carried out using precultures prepared for 24 h at 37° C. A suspension in physiological saline at 0.5 McF was prepared and then each strain was inoculated onto a dish using a 10 μl calibrated loop. […]
(§8) In total, […] were tested: 34 S. aureus, including 25 MRSAs, and 46 other species of Staphylococcus (including S. schleiferi; S. capitis; S. hyicus; S. intermedius; S. haemolyticus; S. auricularis; S. hominis; S. warneri; S. chromogenes; S. cohnii; S. epidermidis; S. sciuri; S. xylosus; S. saprophyticus).

Micrococcus luteus = test: β-D-ribosidase substrates in Columbia agar, colored or fluorescent colonies; type: cell-based
Experimental: [The procedure below names another organism; the source lists this organism under the same test.] as §1, §2, §3, §4, §5

Enterococci = test: as above; type: cell-based, Enterococcus spp
Experimental: as §1, §2, §3, §4, §5

[2] = test system: Alpha-hemolytic streptococci; test: as above; type: cell-based, alpha-hemolytic Streptococcus
Experimental: as §1, §2, §3, §4, §5

Coag neg = test: Catechol-β-D-riboside and X-β-D-riboside on a broad panel of Staphylococcus spp; type: cell-based; conditions: modified Chapman medium without NaCl, 60 mg/l substrate
Experimental: as §6, §7
For the two media, the inoculation was carried out using precultures prepared for 24 h at 37° C. A suspension in physiological saline at 0.5 McF was prepared and then each strain was inoculated onto a dish using a 10 μl calibrated loop.
The readings were carried out after 24 and 48 hours of incubation at 37° C.
as §8

Molecule: 5-Bromo-4-chloro-3-indoxyl-beta-D-riboside [X-β-riboside]
% of strains producing colored or fluorescent colonies (S. aureus (MSSA); 80 mg/L, 18 h): 64% | % of strains producing colored or fluorescent colonies (S. aureus (MSSA); 80 mg/L, 24 h): 100% | % of strains producing colored or fluorescent colonies (S. aureus (MSSA); 80 mg/L, 48 h): 100% | % of strains producing colored or fluorescent colonies (S. aureus (MSSA); 200 mg/L, 18 h): 64% | % of strains producing colored or fluorescent colonies (S. aureus (MSSA); 200 mg/L, 24 h): 64% | % of strains producing colored or fluorescent colonies (S. aureus (MSSA); 200 mg/L, 48 h): 100% | % of strains producing colored or fluorescent colonies (S. aureus (MRSA); 80 mg/L, 18 h): 84% | % of strains producing colored or fluorescent colonies (S. aureus (MRSA); 80 mg/L, 24 h): 92% | % of strains producing colored or fluorescent colonies (S. aureus (MRSA); 80 mg/L, 48 h): 97% | % of strains producing colored or fluorescent colonies (S. aureus (MRSA); 200 mg/L, 18 h): 82% | % of strains producing colored or fluorescent colonies (S. aureus (MRSA); 200 mg/L, 24 h): 87% | % of strains producing colored or fluorescent colonies (S. aureus (MRSA); 200 mg/L, 48 h): 95% | % of strains producing colored or fluorescent colonies ([1]; 80 mg/L, 18 h): 3% | % of strains producing colored or fluorescent colonies ([1]; 80 mg/L, 24 h): 6% | % of strains producing colored or fluorescent colonies ([1]; 80 mg/L, 48 h): 6% | % of strains producing colored or fluorescent colonies ([1]; 200 mg/L, 18 h): 3% | % of strains producing colored or fluorescent colonies ([1]; 200 mg/L, 24 h): 3% | % of strains producing colored or fluorescent colonies ([1]; 200 mg/L, 48 h): 3% | false positives among the coagulase-negative staphylococci ([1]; Columbia agar, 24 h of incubation, concentration not given): 3% | Number of strains producing a coloration/total number of strains, positive at 18 h (S aureus (MRSA and MSSA); 18 h): 17/34 | Number of strains producing a coloration/total number of strains, positive at 24 h (S aureus (MRSA and MSSA); 24 h): 29/34 | Number of strains producing a coloration/total number of strains, positive at 48 h (S aureus (MRSA and MSSA); 48 h): 33/34 | % of strains producing colored or fluorescent colonies (Micrococcus luteus; 80 mg/L, 18 h): 0% | % of strains producing colored or fluorescent colonies (Micrococcus luteus; 80 mg/L, 24 h): 0% | % of strains producing colored or fluorescent colonies (Micrococcus luteus; 80 mg/L, 48 h): 0% | % of strains producing colored or fluorescent colonies (Micrococcus luteus; 200 mg/L, 18 h): 0% | % of strains producing colored or fluorescent colonies (Micrococcus luteus; 200 mg/L, 24 h): 0% | % of strains producing colored or fluorescent colonies (Micrococcus luteus; 200 mg/L, 48 h): 0% | % of strains producing colored or fluorescent colonies (Enterococci; 80 mg/L, 18 h): 2% | % of strains producing colored or fluorescent colonies (Enterococci; 80 mg/L, 24 h): 2% | % of strains producing colored or fluorescent colonies (Enterococci; 80 mg/L, 48 h): 2% | % of strains producing colored or fluorescent colonies (Enterococci; 200 mg/L, 18 h): 2% | % of strains producing colored or fluorescent colonies (Enterococci; 200 mg/L, 24 h): 2% | % of strains producing colored or fluorescent colonies (Enterococci; 200 mg/L, 48 h): 2% | % of strains producing colored or fluorescent colonies ([2]; 80 mg/L, 18 h): 0% | % of strains producing colored or fluorescent colonies ([2]; 80 mg/L, 24 h): 0% | % of strains producing colored or fluorescent colonies ([2]; 80 mg/L, 48 h): 0% | % of strains producing colored or fluorescent colonies ([2]; 200 mg/L, 18 h): 0% | % of strains producing colored or fluorescent colonies ([2]; 200 mg/L, 24 h): 0% | % of strains producing colored or fluorescent colonies ([2]; 200 mg/L, 48 h): 0% | Number of strains producing a coloration/total number of strains, positive at 18 h (Coag neg; 18 h): 7/46 | Number of strains producing a coloration/total number of strains, positive at 24 h (Coag neg; 24 h): 12/46 | Number of strains producing a coloration/total number of strains, positive at 48 h (Coag neg; 48 h): 14/46

Molecule: 5-Bromo-6-chloro-3-indoxyl-beta-D-riboside [Magenta-β-riboside]
% of strains producing colored or fluorescent colonies (S. aureus (MSSA); 100 mg/L, 18 h): 64% | % of strains producing colored or fluorescent colonies (S. aureus (MSSA); 100 mg/L, 24 h): 64% | % of strains producing colored or fluorescent colonies (S. aureus (MSSA); 100 mg/L, 48 h): 100% | % of strains producing colored or fluorescent colonies (S. aureus (MRSA); 100 mg/L, 18 h): 71% | % of strains producing colored or fluorescent colonies (S. aureus (MRSA); 100 mg/L, 24 h): 85% | % of strains producing colored or fluorescent colonies (S. aureus (MRSA); 100 mg/L, 48 h): 95% | % of strains producing colored or fluorescent colonies ([1]; 100 mg/L, 18 h): 0% | % of strains producing colored or fluorescent colonies ([1]; 100 mg/L, 24 h): 3% | % of strains producing colored or fluorescent colonies ([1]; 100 mg/L, 48 h): 6% | % of strains producing colored or fluorescent colonies (Micrococcus luteus; 100 mg/L, 18 h): 0% | % of strains producing colored or fluorescent colonies (Micrococcus luteus; 100 mg/L, 24 h): 0% | % of strains producing colored or fluorescent colonies (Micrococcus luteus; 100 mg/L, 48 h): 0% | % of strains producing colored or fluorescent colonies (Enterococci; 100 mg/L, 18 h): 0% | % of strains producing colored or fluorescent colonies (Enterococci; 100 mg/L, 24 h): 2% | % of strains producing colored or fluorescent colonies (Enterococci; 100 mg/L, 48 h): 2% | % of strains producing colored or fluorescent colonies ([2]; 100 mg/L, 18 h): 0% | % of strains producing colored or fluorescent colonies ([2]; 100 mg/L, 24 h): 0% | % of strains producing colored or fluorescent colonies ([2]; 100 mg/L, 48 h): 0%

% of strains producing colored or fluorescent colonies (S. aureus (MSSA); 50 mg/L, 18 h): 100% | % of strains producing colored or fluorescent colonies (S. aureus (MSSA); 50 mg/L, 24 h): 100% | % of strains producing colored or fluorescent colonies (S. aureus (MSSA); 50 mg/L, 48 h): 100% | % of strains producing colored or fluorescent colonies (S. aureus (MRSA); 50 mg/L, 18 h): 97% | % of strains producing colored or fluorescent colonies (S. aureus (MRSA); 50 mg/L, 24 h): 97% | % of strains producing colored or fluorescent colonies (S. aureus (MRSA); 50 mg/L, 48 h): 97% | % of strains producing colored or fluorescent colonies (Micrococcus luteus; 50 mg/L, 18 h): 0% | % of strains producing colored or fluorescent colonies (Micrococcus luteus; 50 mg/L, 24 h): 0% | % of strains producing colored or fluorescent colonies (Micrococcus luteus; 50 mg/L, 48 h): 0% | % of strains producing colored or fluorescent colonies (Enterococci; 50 mg/L, 18 h): 57% | % of strains producing colored or fluorescent colonies (Enterococci; 50 mg/L, 24 h): 57% | % of strains producing colored or fluorescent colonies (Enterococci; 50 mg/L, 48 h): 49%
Molecule: Cc1cc(=O)oc2cc(O[C@@H]3O[C@H](CO)[C@@H](O)[C@H]3O)ccc12 [4-MU-β-riboside, 4-Methylumbelliferyl-beta-D-riboside]
% of strains producing colored or fluorescent colonies ([1]; 50 mg/L, 18 h): 82% | % of strains producing colored or fluorescent colonies ([1]; 50 mg/L, 24 h): 82% | % of strains producing colored or fluorescent colonies ([1]; 50 mg/L, 48 h): 82% | % of strains producing colored or fluorescent colonies ([2]; 50 mg/L, 18 h): 0% | % of strains producing colored or fluorescent colonies ([2]; 50 mg/L, 24 h): 0% | % of strains producing colored or fluorescent colonies ([2]; 50 mg/L, 48 h): 0%
